*1 amine or outer side, *2 acyl side, *3 side chain or, on linkers, in order; H or OH if unused. Where a SMILES comes first, the peptide text is derived from it. Bridges are numbered along the chain shown (N, C = ends). [ ]: non-standard residue; d: D form. The star is where a group is joined. C20 diacid = O=C(O)CCCCCCCCCCCCCCCCCCC(=O)*; γGlu = O=C(O)[C@H](CCC(=O)[*:2])N[*:1]; Hyp = O=C(O)[C@@H]1C[C@@H](O)CN1; NMeI = CC[C@H](C)[C@H](NC)C(=O)O; Aad = N[C@@H](CCCC(=O)O)C(=O)O; Orn = NCCC[C@H](N)C(=O)O; Sar = CNCC(=O)O
Tests used:
[1] = target: T1, human amylin receptor 3 (hAMYR3), hCTR2 co-expressed with hRAMP3 (Homo sapiens, UniProt O60896+P30988); assay: hAMYR3 cAMP assay (AlphaScreen) in COS7 cells; type: cell-based; conditions: cAMP induction, COS7 cells expressing hAMYR3; Table 1; read-out: hAMYR3 EC50
T1 construct: expressed in transfected cells
T1 sequence (P30988 25-474): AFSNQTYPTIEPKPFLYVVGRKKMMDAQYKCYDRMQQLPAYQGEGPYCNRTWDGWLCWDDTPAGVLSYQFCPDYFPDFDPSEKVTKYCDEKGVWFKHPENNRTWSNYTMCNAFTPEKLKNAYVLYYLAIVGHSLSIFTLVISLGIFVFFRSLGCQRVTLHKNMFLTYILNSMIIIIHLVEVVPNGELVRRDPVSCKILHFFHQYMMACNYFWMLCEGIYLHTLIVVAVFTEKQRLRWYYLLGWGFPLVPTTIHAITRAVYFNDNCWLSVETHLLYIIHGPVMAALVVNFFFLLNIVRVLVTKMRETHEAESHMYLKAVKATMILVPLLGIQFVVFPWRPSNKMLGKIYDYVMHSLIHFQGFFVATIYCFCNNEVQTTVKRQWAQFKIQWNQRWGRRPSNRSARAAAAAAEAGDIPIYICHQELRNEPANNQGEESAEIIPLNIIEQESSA
T1 sequence (O60896 24-148 partner): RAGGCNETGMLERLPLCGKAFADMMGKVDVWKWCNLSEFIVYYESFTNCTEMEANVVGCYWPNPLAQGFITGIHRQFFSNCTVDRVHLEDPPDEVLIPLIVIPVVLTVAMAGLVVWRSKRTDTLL
Procedure, shortened: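 Stable COS7 clone co-expressing hCTR2 and hRAMP3 was exposed to increasing peptide concentrations in Tyrode buffer (pH 7.4) with 100 µM IBMX and 0.1% casein for 15 min at 37 °C. Lysate cAMP was measured by AlphaScreen; EC50 came from 4-parameter logistic fitting.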

[2] = Assessment of physical stability (Thioflavin T fibrillation); type: physicochemical; design: key: FND = fibrillation not detected; FD = fibrillation detected; conditions: 1 mg/ml, 40° C., ThT; for Fibrillation pH 4.0 (Ac): 50 mM acetate buffer pH 4.0, 96 hours; for Fibrillation pH 7.0 (His): 50 mM histidine buffer pH 7.0, 96 hours; for Fibrillation pH 7.0 (Phos.): 50 mM phosphate buffer pH 7.0, 96 hours
Procedure, shortened: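 1 mg/ml peptide with 40 μM ThT in 50 mM phosphate pH 7.0, 50 mM histidine pH 7.0 or 50 mM acetate pH 4.0, in triplicate. Fluorescence read every 10 min after 300 s agitation over 96 h at 40 °C. Lag-time (h) is the intersection of linear fits to stable and growth phases.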

[3] = Assessment of chemical stability (RP-HPLC normalized purity); type: physicochemical; conditions: 7 days, 40° C., Table 1; for Normalized purity after 7 days, 40° C., pH 4: pH 4, 0.2 mg/ml; for Normalized purity after 7 days, 40° C., pH 6: pH 6, 0.2 mg/ml; for Normalized purity after 7 days, 40° C., pH 7.5: pH 7.5, 0.2 mg/ml; for Normalized purity after 7 days, 40° C., pH 9: pH 9, 0.2 mg/ml
Procedure, shortened: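 Peptides at 0.2 mg/ml in water adjusted to pH 4, 6, 7.5 or 9, incubated at 40° C for 7 days. Main-peak area-% by RP-HPLC (C8 ammonium formate or C18 TFA gradient, UV 220 nm), normalized to T=0 as 100.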

[4] = target: T2, human calcitonin receptor (hCTR2) (Homo sapiens, UniProt P30988); assay: hCTR2 cAMP assay (AlphaScreen) in COS7 cells; type: cell-based; conditions: cAMP induction, COS7 cells expressing hCTR2; Table 1; read-out: hCTR2 EC50
T2 construct: expressed in transfected cells
T2 sequence (P30988 25-474): T1 sequence (P30988 25-474)
Procedure, shortened: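 Stable hCTR2 clone in RAMP-naïve COS7 cells stimulated 15 min at 37 °C with increasing peptide concentrations in Tyrode buffer pH 7.4 containing IBMX and 0.1% casein. cAMP in lysates measured by AlphaScreen; EC50 from 4-parameter logistic fit.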

SMILES | EC50 [1] [nM] | Fibrillation pH 4.0 (Ac) [2] | Fibrillation pH 7.0 (His) [2] | Fibrillation pH 7.0 (Phos.) [2] | Normalized purity after 7 days, 40° C., pH 4 [3] | Normalized purity after 7 days, 40° C., pH 6 [3] | Normalized purity after 7 days, 40° C., pH 7.5 [3] | Normalized purity after 7 days, 40° C., pH 9 [3] | EC50 [4] [nM]
CC[C@H](C)[C@@H](C(=O)N[C@@H](CC(C)C)C(=O)N[C@@H](CO)C(=O)N[C@@H](CO)C(=O)N[C@H](C(=O)N[C@@H](CCC(=O)O)C(=O)N[C@H](C(=O)NCC(=O)N[C@@H](CO)C(=O)N[C@@H](CO)C(=O)N[C@H](C(=O)N1CCC[C@H]1C(N)=O)[C@@H](C)O)C(C)C)[C@@H](C)O)N(C)C(=O)[C@H](C)NC(=O)CN(C)C(=O)[C@H](Cc1ccccc1)NC(=O)[C@H](CO)NC(=O)[C@H](CO)NC(=O)[C@H](CCCNC(=N)N)NC(=O)[C@H](CC(N)=O)NC(=O)[C@H](CC(C)C)NC(=O)[C@H](Cc1ccccc1)NC(=O)[C@H](Cc1c[nH]cn1)NC(=O)[C@H](C)NC(=O)[C@H](CC(C)C)NC(=O)[C@H](CCCNC(=N)N)NC(=O)[C@H](CCC(=O)O)NC(=O)[C@@H](NC(=O)[C@H](C)NC(=O)[C@@H]1CSSC[C@H](NC(=O)[C@H](CCCNC(=N)N)NC(=O)CC[C@H](NC(=O)CCCCCCCCCCCCCCCCCCC(=O)O)C(=O)O)C(=O)NCC(=O)N[C@@H]([C@@H](C)O)C(=O)N[C@@H](C)C(=O)N[C@@H]([C@@H](C)O)C(=O)N1)[C@@H](C)O [Compound 35, [19CD]-isoGlu-R-C( )-GTAT-C( )-ATERLAHFLNRSSF-Gly(Me)-A-Ile(Me)-LSSTEVGSSTP-NH2] ({C20 diacid-γGlu}-RCGTATCATERLAHFLNRSSF[Sar]A[NMeI]LSSTEVGSSTP-NH2; disulfide 2-7) | 0.11 | FND | FND | FND | A (A = >90%) | A (A = >90%) | B (B = 70-90%) | B (B = 70-90%) | 0.05
CC[C@H](C)[C@@H](C(=O)N[C@@H](CC(C)C)C(=O)N[C@@H](CO)C(=O)N[C@@H](CO)C(=O)N[C@H](C(=O)N[C@@H](CCC(=O)O)C(=O)N[C@H](C(=O)NCC(=O)N[C@@H](CO)C(=O)N[C@@H](CCCN)C(=O)N[C@H](C(=O)N1C[C@H](O)C[C@H]1C(N)=O)[C@@H](C)O)C(C)C)[C@@H](C)O)N(C)C(=O)[C@H](C)NC(=O)CN(C)C(=O)[C@H](Cc1ccccc1)NC(=O)[C@H](CO)NC(=O)[C@H](CO)NC(=O)[C@H](CCCNC(=N)N)NC(=O)[C@H](CCC(N)=O)NC(=O)[C@H](CC(C)C)NC(=O)[C@H](Cc1ccccc1)NC(=O)[C@H](Cc1c[nH]cn1)NC(=O)[C@H](C)NC(=O)[C@H](CC(C)C)NC(=O)[C@H](CCCNC(=N)N)NC(=O)[C@H](CCC(=O)O)NC(=O)[C@@H](NC(=O)[C@H](C)NC(=O)[C@@H]1CSSC[C@H](NC(=O)[C@H](CCCNC(=N)N)NC(=O)CC[C@H](NC(=O)CCCCCCCCCCCCCCCCCCC(=O)O)C(=O)O)C(=O)NCC(=O)N[C@@H]([C@@H](C)O)C(=O)N[C@@H](C)C(=O)N[C@@H]([C@@H](C)O)C(=O)N1)[C@@H](C)O [Compound 51, [19CD]-isoGlu-R-C( )-GTAT-C( )-ATERLAHFLQRSSF-Gly(Me)-A-Ile(Me)-LSSTEVGS-Orn-T-Hyp-NH2] ({C20 diacid-γGlu}-RCGTATCATERLAHFLQRSSF[Sar]A[NMeI]LSSTEVGS[Orn]T[Hyp]-NH2; disulfide 2-7) | 0.11 | FND | FND | FND | A (A = >90%) | B (B = 70-90%) | B (B = 70-90%) | B (B = 70-90%) | 0.08
CC[C@H](C)[C@@H](C(=O)N[C@@H](CC(C)C)C(=O)N[C@@H](CO)C(=O)N[C@@H](CO)C(=O)N[C@H](C(=O)N[C@@H](CCC(=O)O)C(=O)N[C@H](C(=O)NCC(=O)N[C@@H](CO)C(=O)NCC(=O)N[C@H](C(=O)N1C[C@H](O)C[C@H]1C(N)=O)[C@@H](C)O)C(C)C)[C@@H](C)O)N(C)C(=O)[C@H](C)NC(=O)CN(C)C(=O)[C@H](Cc1ccccc1)NC(=O)[C@H](CO)NC(=O)[C@H](CO)NC(=O)[C@H](CCCNC(=N)N)NC(=O)[C@H](CCC(N)=O)NC(=O)[C@H](CC(C)C)NC(=O)[C@H](Cc1ccccc1)NC(=O)[C@H](Cc1c[nH]cn1)NC(=O)[C@H](C)NC(=O)[C@H](CC(C)C)NC(=O)[C@H](CCCNC(=N)N)NC(=O)[C@H](CCC(=O)O)NC(=O)[C@@H](NC(=O)[C@H](C)NC(=O)[C@@H]1CSSC[C@H](NC(=O)[C@H](CCCNC(=N)N)NC(=O)CC[C@H](NC(=O)CCCCCCCCCCCCCCCCCCC(=O)O)C(=O)O)C(=O)NCC(=O)N[C@@H]([C@@H](C)O)C(=O)N[C@@H](C)C(=O)N[C@@H]([C@@H](C)O)C(=O)N1)[C@@H](C)O [Compound 52, [19CD]-isoGlu-R-C( )-GTAT-C( )-ATERLAHFLQRSSF-Gly(Me)-A-Ile(Me)-LSSTEVGSGT-Hyp-NH2] ({C20 diacid-γGlu}-RCGTATCATERLAHFLQRSSF[Sar]A[NMeI]LSSTEVGSGT[Hyp]-NH2; disulfide 2-7) | 0.09 | FND | FND | FND | A (A = >90%) | B (B = 70-90%) | B (B = 70-90%) | B (B = 70-90%) | 0.07
CC[C@H](C)[C@@H](C(=O)N[C@@H](CC(C)C)C(=O)N[C@@H](CO)C(=O)N[C@@H](CO)C(=O)N[C@H](C(=O)N[C@@H](CCC(=O)O)C(=O)N[C@H](C(=O)NCC(=O)N[C@@H](CO)C(=O)N[C@@H](CCCC(=O)O)C(=O)N[C@H](C(=O)N1C[C@H](O)C[C@H]1C(N)=O)[C@@H](C)O)C(C)C)[C@@H](C)O)N(C)C(=O)[C@H](C)NC(=O)CN(C)C(=O)[C@H](Cc1ccccc1)NC(=O)[C@H](CO)NC(=O)[C@H](CO)NC(=O)[C@H](CCCNC(=N)N)NC(=O)[C@H](CCC(N)=O)NC(=O)[C@H](CC(C)C)NC(=O)[C@H](Cc1ccccc1)NC(=O)[C@H](Cc1c[nH]cn1)NC(=O)[C@H](C)NC(=O)[C@H](CC(C)C)NC(=O)[C@H](CCCNC(=N)N)NC(=O)[C@H](CCC(=O)O)NC(=O)[C@@H](NC(=O)[C@H](C)NC(=O)[C@@H]1CSSC[C@H](NC(=O)[C@H](CCCNC(=N)N)NC(=O)CC[C@H](NC(=O)CCCCCCCCCCCCCCCCCCC(=O)O)C(=O)O)C(=O)NCC(=O)N[C@@H]([C@@H](C)O)C(=O)N[C@@H](C)C(=O)N[C@@H]([C@@H](C)O)C(=O)N1)[C@@H](C)O [Compound 53, [19CD]-isoGlu-R-C( )-GTAT-C( )-ATERLAHFLQRSSF-Gly(Me)-A-Ile(Me)-LSSTEVGS-Aad-T-Hyp-NH2] ({C20 diacid-γGlu}-RCGTATCATERLAHFLQRSSF[Sar]A[NMeI]LSSTEVGS[Aad]T[Hyp]-NH2; disulfide 2-7) | 0.13 | FND | FND | FND | A (A = >90%) | A (A = >90%) | B (B = 70-90%) | B (B = 70-90%) | 0.14

— patent US20210115104A1, “AMYLIN ANALOGUES” (Zealand Pharma A/S, priority 2015, published 2021)
